{
  "source": "patent US9394544B2",
  "about": "“Ameliorating oxidative stress in neurodegenerative disease via Nox1 targeting” (University of Central Florida Research Foundation, Inc., priority 2013, dated 2016)",
  "key": {"Nox1": {"test_system": "Nox1", "assay": "Nuclear localization of Nox1-EGFP in N27 cells (confocal microscopy)", "assay_type": "cell-based, rat", "details": "N27 cells expressing Nox1-EGFP; 6-OHDA 50 μM 6 h, rotenone 5 μM 18 h", "source_text": "The observation that Nox1 was induced by a variety of oxidative stimuli in vitro led one to test Nox1 expression in the rat substantia nigra DA (SNDA) neurons administered with 6-OHDA. […] Neither astrocytes nor microglia expressed Nox1, as verified by co-immunostaining of Nox1 with GFAP (astrocytes) or CD11b (microglia) (FIG. 3B). Increased Nox1 transcript was found in the SN as shown by in situ hybridization (FIG. 3C). […] As early as 3 days post 6-OHDA injection, Nox1 expression was increased in the nucleus and in the cytoplasm of DA neurons (FIG. 4A). […] Nuclear expression of the Nox1/Rac1 complex was further analyzed in N27 cells after treatment with 6-OHDA. First, activated Rac1 was detected by immunoprecipitation of nuclear extracts of N27 cells after a 24 h treatment with 6-OHDA. […] Next, it was established that N27 cells stably expressing Nox1 tagged with EGFP at the C-terminus. […] To examine whether nuclear translocation of Nox1 in dopaminergic cells is observed under different conditions that cause dopaminergic neuronal death, mitochondrial respiratory complex inhibitor, rotenone, was tested."}, "SN DA neurons": {"test_system": "SN DA neurons", "assay": "Stereologic counting of TH-immunostained DA neurons in the SN, 6-OHDA rat model", "assay_type": "in vivo", "details": "direct injection into the rat SN, in 2 weeks", "protocol": "The experiments were carried out on rats, in accordance with the NIH Guide for the Care and Use of Laboratory Animals. All procedures were approved by the local Animal Care and Use Committee. Female Sprague Dawley (SD) rats (Charles River; 8-weeks-old at the time of the beginning of AAV expression or 6-OHDA treatment, 2 or 3 per cage) were maintained in a temperature/humidity-controlled environment under a 12 h light/dark cycle with free access to food and water. All rats were respectively allocated into […], Nox1 shRNA/AAV, T17N Rac1/AAV, and scramble (scb) shRNA/AAV or empty vector/AAV as control groups. Rats were deeply anesthetized (ketamine and xylazine mixture 30 mg/kg, i.p.) and placed in a rat stereotaxic apparatus, a site in the right substantia nigra (SN) [coordinate: anteroposterior (AP), −5.3 mm; mediolateral (ML), +2.0 mm; dorsoventral (DV), −5.8 mm] was selected to inject scb shRNA/AAV (n=8), Nox1 shRNA/AAV (n=16), T17N Rac1/AAV (n=16), and empty vector/AAV (n=28), respectively, according to the grouping. […]\nA set consisting of six sections, 360 μm apart, were prepared. […] Numbers of TH-immunoreactive cells in the substantia nigra (SN) were counted using the optical fractionator (West 1990). […] The coefficient of error and coefficient of variation were also determined."}},
  "data": [
    {"smiles": "NCCc1cc(O)c(O)cc1O", "note": "[6-OHDA, 6-hydroxydopamine]", "values": [
      {"measurement": "nuclear localization of Nox1", "setting": "Nox1", "value": "translocation of Nox1-EGFP into the nucleus"},
      {"measurement": "loss of TH-positive SNDA neurons", "setting": "SN DA neurons", "value": "90%-95%"}
    ]}
  ]
}
